Assay results from patent US4486434A, “Histamine H1 -antagonists” (Smith Kline & French Laboratories Limited, priority 1981, dated 1984).

Experiment: rat whole body radiography
Format: in vivo
Excerpt: This has been shown by rat whole body radiography.

In the case of `Cc1ccc(Cc2cnc(NCCCCc3ncc(Br)cc3C)[nH]c2=O)cn1` [Example 1, 2-[4-(5-bromo-3-methylpyrid-2-yl)-butylamino]-5-(6-methylpyrid-3-yl-methyl)-4-pyrimidone], the “entry into the central nervous system” value is reported as “does not enter the central nervous system”.
